# B1: Methanopyrus kandleri TIP49 protein (mkTIP49), wild type, full length (enzyme, UniProt Q8TZC3 1-455, looked up)
# chain: MVEIKEIGEVSTEETSPGAHSHITGLGLDENLKAKPVGDGLVGQEEAREAAGIVVEMVKQGRRAGHGLLLVGPPGTGKTAIAYGIARELGEDVPFVSISGSEIYGTNLSKTEFLQQAIRRAIGVEFTETREVIEGKVESLEIERAKHPLSPYMEVPSGAIIELKTQDDHRRFKVPEEIAIQLVQAGVREGDVIQIDVESGHVTKLGRAKDALEEEEEELLGVHAVELPEGPVQKKKEIKRVVTLHDLDMANVRAGRLLGFREEEITDEIRQKVDERVQKMVDEGEASLVPGVLFIDEAHMLDIEAFAFLNRSLEEEIAPILVMATNRAMAKVRGTDEEAPHGIPGDLLDRMLIARTRPFERHEIHEIIGIRARVQDIQLTDEAHEYLTDLGEEKSIRYATRLLEPARIVAEKEGSEVVEKKHVERVEEVFTDVSDSVEYMERMRRELPVMKYLTG
# B2: isolated mkTIP49 D2 insertion domain (TIPins, residues 124–290) (domain or fragment, Methanopyrus kandleri, UniProt Q8TZC3 124-290, looked up)
# chain: VEFTETREVIEGKVESLEIERAKHPLSPYMEVPSGAIIELKTQDDHRRFKVPEEIAIQLVQAGVREGDVIQIDVESGHVTKLGRAKDALEEEEEELLGVHAVELPEGPVQKKKEIKRVVTLHDLDMANVRAGRLLGFREEEITDEIRQKVDERVQKMVDEGEASLVP
# What was measured:
# TIPΔD2 [1] = target: T1, TIPΔD2 (Methanopyrus kandleri, UniProt Q8TZC3, DEL143-290); assay: native nanoelectrospray ionization mass spectrometry; type: binding; settings: tightly bound; co-purified from E. coli host
# TIPΔD2 [2] = target: T1, TIPΔD2; assay: malachite green phosphate release ATPase assay; type: biochemical
# mkTIP49 = mkTIP49 (Methanopyrus kandleri, UniProt Q8TZC3); assay: malachite green phosphate release ATPase assay; type: biochemical; settings: optimum 75-80 °C
# native MS = target: the molecule itself; assay: native MS
molecule,measurement,setting,value
Nc1ncnc2c1ncn2[C@@H]1O[C@H](COP(=O)(O)OP(=O)(O)O)[C@@H](O)[C@H]1O [ADP],native nanoelectrospray ionization mass spectrometry,TIPΔD2 [1],Both full-length mkTIP49 and TIPΔD2 contain a tightly bound ADP cofactor
Nc1ncnc2c1ncn2[C@@H]1O[C@H](COP(=O)(O)OP(=O)(O)OP(=O)(O)O)[C@@H](O)[C@H]1O [ATP],malachite green phosphate release ATPase assay (PiColorLock ALS),TIPΔD2 [2],deletion of D2 had a dramatic stimulating effect on the catalytic activity of mkTIP49
same,malachite green phosphate release ATPase assay (PiColorLock ALS),mkTIP49,we measured the intrinsic ATPase activity of mkTIP49 and mutants thereof
B1,stoichiometry N,native MS,12
B2,stoichiometry N,native MS,2

# Source: PMC3991330 (Structure(London, England:1993), 2014)
